pEC50: −log10 of the molar value. Where “and” joins values, the source holds several entries; their conditions need not be identical. Identical values can stand only once. Entries after “also recorded” stand apart in the source; their conditions may differ.
What was measured:
human mGlu1 = molecular target: T1, human mGlu1 (Homo sapiens, UniProt Q13255); experiment: mGlu1 calcium mobilization (triple-add) PAM assay; format: cell-based
T1 construct: expressed in transfected cells; pcDNA5/TO)
Procedure: Tetracycline-inducible human mGlu1 WT-T-REx-293 cells (Wu et al, Science 2014) were cultured at 37 °C in Dulbecco’s Modified Eagle Medium (DMEM) growth medium containing 10% Tet-tested FBS, 2 mM L-glutamine, 20 mM HEPES, 0.1 mM nonessential amino acids, 1 mM sodium pyruvate, antibiotic/antimycotic, 100 μg/mL hygromycin and 5 μg/mL blasticidin in the presence of 5% CO2. […] The mutant stable cell lines were generated in the same manner as the WT as previously described and cultured in the growth medium described above.
To determine the potency of mGlu1 PAMs in calcium assays, Ca flux was measured as previously described in ACS Chem. Bio. 2014, 9, 2334–2346. Briefly, the day before the assay, human mGlu1 WT-T-REx-293 cells were plated in black-walled, clear-bottomed, poly-D-lysine coated 96-well plates at 80,000 cells/100 μL assay medium (DMEM supplemented with 10% dialyzed FBS, 20 mM HEPES, and 1 mM sodium pyruvate) containing 50 ng/mL of tetracycline to induce mGlu1 expression. The next day, media was removed and the cells were incubated with 50 μL of 1.15 μM Fluo-4 AM dye solution prepared in assay buffer (buffer (Hank’s balanced salt solution, 20 mM HEPES, and 2.5 mM probenecid) for 45 min at 37 °C, the dye was removed and replaced with 45 μL of assay buffer. Then, calcium flux was measured using Flexstation II (Molecular Devices, Sunnyvale, CA). Compounds serially diluted at half log concentrations in DMSO were further diluted in assay buffer. The compounds or DMSO vehicle were added to cells and incubated for 2.5 min and an EC20 concentration of glutamate was added and incubated for 1 min. An ECmax concentration of glutamate was also added to cells that were incubated with DMSO vehicle to accurately calculate the EC20 calcium response. Data were normalized by subtracting the basal florescent peak before EC20 agonist addition from the maximal peak elicited by EC20 agonist and PAMs. Using GraphPad Prism 5.0, the concentration response curves were generated and the potencies of the mGlu1 PAMs were determined.

[1] = intrinsic clearance, predicted hepatic clearance; format: in vitro ADME, human; settings: in vitro predicted hepatic clearance
Procedure: Human or rat hepatic microsomes (0.5 mg/mL) and 1 μM test compound were incubated in 100 mM potassium phosphate pH 7.4 buffer with 3 mM MgCl2 at 37 °C with constant shaking. After a 5 min preincubation, the reaction was initiated by addition of NADPH (1 mM). At selected time intervals (0, 3, 7, 15, 25, and 45 min), aliquots were taken and subsequently placed into a 96-well plate containing cold acetonitrile with internal standard (50 ng/mL carbamazepine). Plates were then centrifuged at 3000 rcf (4 °C) for 10 min, and the supernatant was transferred to a separate 96-well plate and diluted 1:1 with water for LC/MS/MS analysis. The in vitro half-life (T1/2, min, eq 1), intrinsic clearance (CLint, mL/min/kg, eq 2) and subsequent predicted hepatic clearance (CLhep, mL/min/kg, eq 3) was determined employing the following equations: [drawing 2] 1 where k represents the slope from linear regression analysis of the natural log percent remaining of test compound as a function of incubation time [drawing 3] 2
^ascale-up factors: of 20 (human) or 45 (rat) [drawing 4] 3 where Qh (hepatic blood flow, mL/min/kg) is 21 (human) or 70 (rat).

Sprague–Dawley rats = experiment: catalepsy (latency to withdraw); format: in vivo; settings: rat, doses up to 10 mg/kg p.o., 100 min postdose
Procedure: In order to enable our target validation work, we first profiled PAM 19d in a rat locomotor battery to ensure that pharmacodynamic efficacy was not mistaken for gross effects on locomotion.[20] […] PK was performed in parallel to establish a PK/PD relationship.[24]
Control rats were injected with 1.5 mg/kg of haloperidol i.p. (dissolved in 8% lactic acid and taken to volume of 50 mL with sterile water) and were returned to their home cage for 90 min. Cataleptic behavior is determined by placing the forelimbs on a bar raised 6 cm above the table and recording the amount of time it takes for the rat to withdraw the forelimbs with a cutoff of 60 s. Data are expressed as mean latency to withdraw + SEM or percent inhibition of catalepsy + SEM.

[2] = satellite PK for mouse AHL; format: in vivo
Source text: In parallel with the rat AHL study, we carried out a mouse AHL study to determine if the PK/PD relationship would remain intact across rodent species.

5-HT2B = 5-HT2B (Homo sapiens, UniProt P41595); experiment: Eurofins radioligand binding panel; parameters: Eurofins; settings: agonist radioligand
Source text: Table S1. Eurofins Lead Profiling Screen Data
This is a radioligand binding panel of 80 targets including GPCRs, ion channels, transporters and nuclear hormones. Biochemical assay results are presented as the percent inhibition of specific […]
Results showing an inhibition or stimulation higher than 50% are considered to represent significant effect and are highlighted

[3] = PAM, calcium flux, EC20 glutamate

T1 sequence (Q13255 19-1194): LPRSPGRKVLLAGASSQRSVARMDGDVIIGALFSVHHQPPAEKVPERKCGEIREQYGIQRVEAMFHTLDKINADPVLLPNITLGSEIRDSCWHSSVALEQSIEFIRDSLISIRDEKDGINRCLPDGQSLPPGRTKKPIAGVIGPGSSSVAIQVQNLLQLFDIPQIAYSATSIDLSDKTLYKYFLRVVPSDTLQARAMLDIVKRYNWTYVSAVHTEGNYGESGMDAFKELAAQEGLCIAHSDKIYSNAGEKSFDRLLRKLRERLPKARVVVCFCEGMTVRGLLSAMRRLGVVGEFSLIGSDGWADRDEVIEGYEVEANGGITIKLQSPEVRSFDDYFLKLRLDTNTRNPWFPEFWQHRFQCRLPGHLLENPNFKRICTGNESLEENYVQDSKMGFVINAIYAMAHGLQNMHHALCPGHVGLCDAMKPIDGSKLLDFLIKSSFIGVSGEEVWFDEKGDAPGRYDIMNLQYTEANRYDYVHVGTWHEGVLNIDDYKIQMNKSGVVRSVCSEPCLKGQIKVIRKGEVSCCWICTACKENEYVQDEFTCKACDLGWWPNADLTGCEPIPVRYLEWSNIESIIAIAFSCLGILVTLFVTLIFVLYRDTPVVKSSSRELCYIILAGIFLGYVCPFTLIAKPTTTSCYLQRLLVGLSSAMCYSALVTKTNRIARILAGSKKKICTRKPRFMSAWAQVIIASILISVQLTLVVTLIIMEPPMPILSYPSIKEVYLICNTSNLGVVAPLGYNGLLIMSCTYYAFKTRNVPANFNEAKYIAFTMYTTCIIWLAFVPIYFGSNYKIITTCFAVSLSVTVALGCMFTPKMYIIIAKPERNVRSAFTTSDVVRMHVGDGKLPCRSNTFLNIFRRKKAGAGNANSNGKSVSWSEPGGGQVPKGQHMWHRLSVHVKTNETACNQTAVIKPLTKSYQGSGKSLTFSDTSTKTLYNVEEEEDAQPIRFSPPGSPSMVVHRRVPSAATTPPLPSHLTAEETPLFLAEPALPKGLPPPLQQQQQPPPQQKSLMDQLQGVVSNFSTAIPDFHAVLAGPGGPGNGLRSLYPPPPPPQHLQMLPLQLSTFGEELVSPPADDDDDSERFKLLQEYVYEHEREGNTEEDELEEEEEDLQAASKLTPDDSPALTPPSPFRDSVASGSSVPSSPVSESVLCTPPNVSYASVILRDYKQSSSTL
Chain of 5-HT2B (P41595 whole entry): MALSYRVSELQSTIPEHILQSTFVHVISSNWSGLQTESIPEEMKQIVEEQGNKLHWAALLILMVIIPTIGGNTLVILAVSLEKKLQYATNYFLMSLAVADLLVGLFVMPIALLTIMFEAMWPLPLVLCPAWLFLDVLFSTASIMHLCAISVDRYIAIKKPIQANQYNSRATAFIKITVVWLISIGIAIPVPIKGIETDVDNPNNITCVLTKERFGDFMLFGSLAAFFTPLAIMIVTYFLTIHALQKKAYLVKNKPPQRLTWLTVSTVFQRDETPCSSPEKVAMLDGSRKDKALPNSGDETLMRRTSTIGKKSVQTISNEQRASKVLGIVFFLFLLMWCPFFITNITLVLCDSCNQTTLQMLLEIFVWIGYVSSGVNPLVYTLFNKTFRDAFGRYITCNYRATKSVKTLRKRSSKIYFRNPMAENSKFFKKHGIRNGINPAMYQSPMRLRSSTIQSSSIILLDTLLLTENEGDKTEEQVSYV

SMILES: Cn1nc(-c2ccnn2C)cc1CNC(=O)c1cc(-c2ccco2)ccc1Cl [Compound 19d, 2-Chloro-N-((1,2′-dimethyl-1H,2’H-[3,3′-bipyrazol]-5-yl)methyl)-5-(furan-2-yl)benzamide]
- pEC50 (human mGlu1; [3]): 7.27
- human mGlu1 Glumax (human mGlu1; [3]): 83%
- human mGlu1 pEC50 (human mGlu1; n = 77): 7.31 ± 0.02
- receptor desensitization (antagonist/EC80 window) (human mGlu1; triple-add protocol): only slight mGlu1 desensitization; also recorded: little receptor desensitization
- intrinsic agonist activity (compound alone window) (human mGlu1; triple-add protocol, up to 30 μM): no agonism; also recorded: no intrinsic agonist activity
- CLhep, human [1]: 16 mL/min/kg and 15.8 mL/min/kg
- catalepsy (Sprague–Dawley rats): lack of effect; also recorded: without effect
- free brain concentration ([2]; 10 mg/kg): 36 nM
- free brain concentration over the EC50 ([2]; 10 mg/kg): 1.3 fold
- free brain concentration ([2]; 30 mg/kg): 67 nM
- free brain concentration over the EC50 ([2]; 30 mg/kg): 2.5 fold
- inhibition at 10 µM (5-HT2B): 67%
